Patent US20070015832A1, “Methods of treating overactive bladder and urinary incontinence” (Myriad Genetics, Incorporated, priority 2005, published 2007)
Where two headings read alike, the source gives them in different places.

Details: oral tablets, placebo group 6 patients
Procedure: Subjects will be stratified at randomization for use/non-use of AChE inhibitors. A target of 201 subjects (67 subjects per arm) in 3 treatment groups are enrolled for 12 Months with optional follow-on treatment after Month 12 (2 treatment groups).
The intraday dosing interval is approximately 12 hours. Study drug is instructed to be taken at approximately the same time each day during the participation in the 12-month study. Study medication may be taken with or without food.

With `C[C@@H](C(=O)O)c1ccc(-c2ccccc2)c(F)c1` [(R)-2-(2-fluoro-4-biphenyl)propionic acid] the “patients exhibiting urinary incontinence” value (400 mg BID group (800 mg/day), p value vs. placebo = 0.028) was 0 patients and the “patients exhibiting urinary incontinence” value (800 mg BID group (1600 mg/day), p value vs. placebo = 0.063) was 1 patient.
